In series [1] the test system is Human pancreas cancer cells (PANC-1). Briefly: Cell proliferation assay (MTS), PANC-1. The format is cell-based. To be noted: for IC50: read-out: IC50 (μM) Pancreatic cancer PANC-1; for antiproliferative activity relative to RM-133, PANC-1: fold of RM-133 activity (>1 = more active). The procedure:
(§1) The different aminosteroids were dissolved in methanol (50 mM).

The conditions of series [2]: human, 1 h, 10 μM, pH 7.4.
Procedure: (§2) Assays were performed at 37° C. for 1 h, with or without 10 mM NADPH in the presence of 40 μg of human liver microsome from Corning (Melrose, Mass., USA) and 10 μM of aminosteroid substrate in a final 100 μL volume of 50 mM Tris buffer (pH 7.4) supplemented with 10 mM MgCl2. Assays were ended by adding 100 μL of MeOH followed by centrifugation at 13,000 g for 10 min to obtain a pellet of proteins. The supernatant of 2 assays was pooled and submitted to HPLC-MS analysis (Shimadzu LCMS-2020 APCI, Alltima HP C18 (250 mm×4.6 mm, 5 μm) column, MeOH:H2O gradient). Remaining substrate (expressed in %) was calculated by dividing the area under the curve of the substrate for the assays without NADPH by the area under the curve of the substrate for the assays with NADPH and multiplied by 100. Values represent the average of 2 independent experiments.
The subject of series [3] is renal proximal tubule epithelial cells (RPTEC). Briefly: Toxicity on normal cells (MTS), RPTEC. The format is cell-based, human. On the procedure: as §1
The subject of series [4] is OVCAR-3 cells (ovarian cancer). The series is described as follows: Cell proliferation assay (MTS), OVCAR-3. Format: cell-based. To be noted: for IC50: read-out: IC50 (μM) Ovarian cancer OVCAR-3; for antiproliferative activity relative to RM-133, OVCAR-3: fold of RM-133 activity (>1 = more active). On the procedure: as §1
Series [5] deals with primary ovary normal cells. The series is described as follows: cells. The format is cell-based, human. The note with it: for Selectivity Index Ovary: IC50 normal cells/IC50 cancer cells (primary ovary / OVCAR-3). The procedure: as §1
Series [6] deals with HL-60 (acute promyelocytic leukemia) cells. Briefly: Cell proliferation assay (MTS), HL-60. The note with it: for IC50: read-out: IC50 (μM) HL-60 (leukemia); for antiproliferative activity relative to RM-133, HL-60: fold of RM-133 activity (>1 = more active). Format: cell-based. On the procedure: as §1
Series [7] relates to primary pancreas normal cells. Briefly: Toxicity on normal cells (MTS), primary pancreas. Format: cell-based, human. The note with it: for Selectivity Index Pancreas: IC50 normal cells/IC50 cancer cells (primary pancreas / PANC-1); for IC50: human normal cells. The procedure:
as §1

The test system of series [8] is primary pancreas, primary ovary and renal proximal tubule epithelial cells (RPTEC). Briefly: Toxicity on the normal cell types tested. The note with it: higher concentration tested 50 μM.
Procedure: Human primary epithelial pancreas and ovary cells were obtained from Cedarlane (Chicago, Ill., USA) and were cultured in the manufacturer recommended medium. Human renal proximal tubule epithelial cells (RPTEC) were obtained from Lonza (Mississauga, ON, Canada) and were maintained in DMEM-F12 supplemented as previously reported [4]. The cell lines were all maintained under a 5% CO2 humidified atmosphere at 37° C. and the culture medium was changed every 2 to 3 days and the cells were split once a week to maintain cell propagation.
The cell proliferation assay was performed using 3-(4,5-dimethylthiazol-2-yl)-5-(3-carboxymethoxyphenyl)2-(4-sulfophenyl)-2H-tetrazolium (MTS) (Cell Titer 96 Aqueous, Promega, Nepean, ON, Canada) as previously described [3, 4, 5]. Briefly, cells were plated in triplicate in 96-well plates (1×10^4 cells/well) in appropriate culture medium (total of 90 μL). Before each treatment, the cells were incubated at 37° C. in a 5% CO2 humidified atmosphere for 24 h. The different aminosteroids were dissolved in methanol (50 mM). The stock solutions were diluted at multiple concentrations with culture media in order to obtain the desired final concentration followed by the addition of 10 μL to each well, and the mixture incubated for 3 days. Following treatment, MTS (10 μL) was added to each well and the mixture was incubated for 4 h. […] Selectivity was calculated by dividing the IC50 obtained for a specific primary cell by the IC50 for the related cancer cell line.
Series [9] is described as follows: Metabolic stability assay, human liver microsomes. To be noted: 1 h; for increased metabolic stability relative to RM-133: human hepatic microsomes; for metabolic stability (% of remaining compound): 10 μM, 40 μg human liver microsomes, result in words.
Procedure: as §2
Series [10] deals with LAPC-4 (prostate cancer) cells. Briefly: Cell proliferation assay (MTS), LAPC-4. The note with it: read-out: IC50 (μM) Prostate cancer LAPC-4. The format is cell-based. The procedure: as §1
In series [11] the test system is PANC-1, BxPC-3, Hs766, OVCAR-3, Caov3, SKOV3, MCF-7, T-47D and LAPC-4 cell lines. Briefly: Cytotoxic activity screening at 5 and 1 μM on cancer cell lines. To be noted: independently of the cancer cell line tested, result in words.
Procedure: The cell proliferation assay was performed using 3-(4,5-dimethylthiazol-2-yl)-5-(3-carboxymethoxyphenyl)2-(4-sulfophenyl)-2H-tetrazolium (MTS) (Cell Titer 96 Aqueous, Promega, Nepean, ON, Canada) as previously described [3, 4, 5]. Briefly, cells were plated in triplicate in 96-well plates (1×10^4 cells/well) in appropriate culture medium (total of 90 μL). Before each treatment, the cells were incubated at 37° C. in a 5% CO2 humidified atmosphere for 24 h. The different aminosteroids were dissolved in methanol (50 mM). The stock solutions were diluted at multiple concentrations with culture media in order to obtain the desired final concentration followed by the addition of 10 μL to each well, and the mixture incubated for 3 days. Following treatment, MTS (10 μL) was added to each well and the mixture was incubated for 4 h.
In series [12] the test system is T-47D breast cancer cell line. Briefly: Cell proliferation assay (MTS), T-47D. Format: cell-based. To be noted: Homo sapiens, T47D, 72 h; 3 days treatment, MTS. The procedure:
as §1

For series [13], the system named is PC-3 (prostate cancer) cells. The series is described as follows: Cell proliferation assay (MTS), PC-3. Format: cell-based. The note with it: 72 h; 3 days treatment, MTS; read-out: IC50 (μM) Prostate cancer PC-3. The procedure:
as §1

Series [14] has as its system LNCaP (prostate cancer) cells. Briefly: Cell proliferation assay (MTS), LNCaP. Format: cell-based. The note with it: Homo sapiens, 72 h, 3 days treatment, MTS, read-out: IC50 (μM) Prostate cancer LNCaP. The procedure: as §1
Series [15] deals with MCF-7 breast cancer cells. Briefly: Cell proliferation assay (MTS), MCF-7. Format: cell-based, human. The note with it: Homo sapiens, MCF7, 72 h, 3 days treatment. The procedure:
as §1

Where [16] appears, read: Homo sapiens, PANC-1, 72 h, 3 days treatment, MTS.
Where [17] appears, read: Homo sapiens, OVCAR-3, 72 h, 3 days treatment, MTS.
Setting [18] is: human normal cells, read-out: IC50 (μM) Primary Ovary (normal cells).
Setting [19] is: Homo sapiens, HL-60, 72 h, 3 days treatment, MTS.
[20] abbreviates: normal (kidney) cells, read-out: IC50 (μM) RPTEC (normal cells).

Structures are written as SMILES. Entries after “also recorded” stand apart in the source; their conditions may differ. Like-named read-outs stand apart in the source and are kept apart here.

As to `C#C[C@@]1(O)CC[C@H]2[C@@H]3CC[C@H]4C[C@H](OC(=O)N(C)C)[C@@H](N5CCN(C(=O)[C@@H]6CCCN6C(=O)c6ccc7ccccc7n6)CC5)C[C@]4(C)[C@H]3CC[C@@]21C` [3 (3-carbamate), (2β,3α,5α,17α)-17-hydroxy-2-{4-[1-(quinolin-2-ylcarbonyl)-L-prolyl]piperazin-1-yl}pregn-20-yn-3-yl dimethylcarbamate], the half-inhibitory concentration (IC50) was 9.99 µM in series [1] (setting [16]); 24.2 µM in series [3] (Homo sapiens, RPTEC, normal (kidney) cells, read-out: IC50 (μM) RPTEC (normal cells)); 20 µM in series [4] (setting [17]); more than 50 µM in series [5] (setting [18]); 7.95 µM in series [6] (setting [19]); more than 50 µM in [7]. In [1], the “antiproliferative activity relative to RM-133, PANC-1” value was found to be 0.7 fold. In series [2] (microsomes), the “increased metabolic stability relative to RM-133” value turned out to be 5.9 fold. Moreover, the “antiproliferative activity relative to RM-133, OVCAR-3” value in series [4] is recorded as 0.3 fold. The “Selectivity Index Ovary” value in series [5] was more than 2.5. Moreover, the “antiproliferative activity relative to RM-133, HL-60” value in series [6] is given as 0.9 fold. Also, the “Selectivity Index Pancreas” value in series [7] was more than 5.0. Besides, the “toxicity on the normal cell types tested” value in series [8] is “very low toxicity; also recorded: no cytotoxicity was observed”.

Regarding `C#C[C@@]1(O)CC[C@H]2[C@@H]3CC[C@H]4C[C@H](OC(C)=O)[C@H](N5CCN(C(=O)[C@@H]6CCCN6C(=O)c6ccc7ccccc7n6)CC5)C[C@]4(C)[C@H]3CC[C@@]21C` [4 (3-ester), (2α,3α,5α,17α)-17-hydroxy-2-{4-[1-(quinolin-2-ylcarbonyl)-L-prolyl]piperazin-1-yl}pregn-20-yn-3-yl acetate], the IC50 in [1] (3 days treatment, MTS) is 6.24 µM; in series [3] (setting [20]), 32.1 µM; in [4] (3 days treatment, MTS) it was 3.83 µM; in [5] (setting [18]), 42 µM; in [6] (3 days treatment, MTS) it was 6.44 µM; in series [7], 30.1 µM. Moreover, the “antiproliferative activity relative to RM-133, PANC-1” value in [1] stood at 1.1 fold. The “antiproliferative activity relative to RM-133, OVCAR-3” value in series [4] is on record as 1.4 fold. In [5], the “Selectivity Index Ovary” value is recorded as 11.0. In series [6], the “antiproliferative activity relative to RM-133, HL-60” value is 1.1 fold. For the same compound, the “Selectivity Index Pancreas” value in [7] came to 4.8. In addition, the “toxicity on the normal cell types tested” value in [8] was “very low toxicity”. In addition, in [9], the “increased metabolic stability relative to RM-133” value turned out to be 3.1 fold.

Turning to `C#C[C@]1(OC(C)=O)CC[C@H]2[C@@H]3CC[C@H]4C[C@H](OC(C)=O)[C@@H](N5CCN(C(=O)[C@@H]6CCCN6C(=O)c6ccc7ccccc7n6)CC5)C[C@]4(C)[C@H]3CC[C@@]21C` [5 (3,17-diester), (2β,3α,5α,17α)-2-{4-[1-(quinolin-2-ylcarbonyl)-L-prolyl]piperazin-1-yl}pregn-20-yne-3,17-diyl diacetate], the half-maximal inhibitory concentration (IC50) is 25 µM in series [1] (3 days treatment, MTS); 45.5 µM in series [3] (setting [20]); 13.1 µM in series [4] (3 days treatment, MTS); 25.4 µM in series [5] (setting [18]); 6.44 µM in series [6] (3 days treatment, MTS); 16.6 µM in series [7]. The “antiproliferative activity relative to RM-133, PANC-1” value in series [1] came out at 0.3 fold. Further, the “antiproliferative activity relative to RM-133, OVCAR-3” value in series [4] worked out at 0.4 fold. For the same compound, the “antiproliferative activity relative to RM-133, HL-60” value in series [6] is “activity similar to RM-133”. For the same compound, in series [8], the “toxicity on the normal cell types tested” value was “increased toxicity relative to the mono-ester derivative 4”. Also, the “increased metabolic stability relative to RM-133” value in series [9] is reported as 3.5 fold.

Consider `CN1CCN(C(=O)[C@@H]2CCCN2C(=O)c2ccc3ccccc3n2)CC1` [10 (side-chain only), (4-methylpiperazin-1-yl)[(2S)-1-(quinolin-2-ylcarbonyl)pyrrolidin-2-yl]methanone], for which the IC50 in [1] (setting [16]), in [4] (setting [17]) and in [6] (setting [19]) was more than 50 µM throughout. Also, the “antiproliferative activity relative to RM-133, PANC-1” value in series [1] was “completely inactive”. Further, in series [4], the “antiproliferative activity relative to RM-133, OVCAR-3” value was “completely inactive”. The “antiproliferative activity relative to RM-133, HL-60” value in series [6] was “completely inactive”. In addition, the “metabolic stability (% of remaining compound)” value in series [9] was “more stable than steroid 12 lacking the 2β-side chain or RM-133 itself”.

On to `C#C[C@@]1(O)CC[C@H]2[C@@H]3CCc4cc(OC(=O)N(C)C)c(N5CCN(C(=O)[C@@H]6CCCN6C(=O)c6ccc7ccccc7n6)CC5)cc4[C@H]3CC[C@@]21C` [Compound 1, (17β)-17-ethynyl-17-hydroxy-2-{4-[1-(quinolin-2-ylcarbonyl)-L-prolyl]piperazin-1-yl}estra-1,3,5(10)-trien-3-yl dimethylcarbamate], for which the IC50 in [1] (Homo sapiens, PANC-1, 72 h) was 9.6 µM; in [3] (Homo sapiens, RPTEC, read-out: IC50 (μM) Normal Cells Kidney) it was not below 50 µM; in [4] (Homo sapiens, OVCAR-3, 72 h), 6.4 µM; in series [10] (Homo sapiens, LAPC4, 72 h), 1.3 µM; in series [5] (Homo sapiens, read-out: IC50 (μM) Normal Cells Ovary) it was not below 50 µM; in series [6] (Homo sapiens, HL-60, 72 h) it was 4.3 µM. The “cytotoxic activity in screening (cell survival)” value (from here on “cytotoxic activity in screening”) in series [11] is listed as “only slight differences in their respective levels of activity”.

For the compound `C#C[C@@]1(O)CC[C@H]2[C@@H]3CCc4cc(OC(=O)N(CC)CC)c(N5CCN(C(=O)[C@@H]6CCCN6C(=O)c6ccc7ccccc7n6)CC5)cc4[C@H]3CC[C@@]21C` [Compound 2, (17β)-17-ethynyl-17-hydroxy-2-{4-[1-(quinolin-2-ylcarbonyl)-L-prolyl]piperazin-1-yl}estra-1,3,5(10)-trien-3-yl diethylcarbamate], the “cytotoxic activity in screening” value in series [11] is given as “marked weaker cytotoxic activity; also recorded: significant losses of activity”.

With `C#C[C@@]1(O)CC[C@H]2[C@@H]3CCc4cc(OC(C)=O)c(N5CCN(C(=O)[C@@H]6CCCN6C(=O)c6ccc7ccccc7n6)CC5)cc4[C@H]3CC[C@@]21C` [Compound 3, (17β)-17-ethynyl-17-hydroxy-2-{4-[1-(quinolin-2-ylcarbonyl)-L-prolyl]piperazin-1-yl}estra-1,3,5(10)-trien-3-yl acetate], the “phenolic metabolite RM-581-OH (stability of potential prodrugs to hydrolysis)” value in series [2] is “no trace of the phenolic metabolite RM-581-OH could be observed”. Besides, the IC50 is not below 50 µM in [3] (Homo sapiens, RPTEC, relative toxicity on human normal cells, read-out: IC50 (μM) Normal Cells Kidney); 3.4 µM in series [4] (3 days treatment, MTS); 3.9 ± 0.4 µM in series [4] (setting [17]); 0.6 µM in series [10] (3 days treatment, MTS); 0.5 ± 0.4 µM in series [10] (Homo sapiens, LAPC4, 72 h, 3 days treatment, MTS); 0.4 ± 0.2 µM in [12]. Further, the IC50 is not below 50 µM in [5] (relative toxicity on human normal cells, read-out: IC50 (μM) Normal Cells Ovary); 1.4 ± 0.3 µM in series [13]; 4.3 µM in series [6] (setting [19]); 0.8 ± 0.3 µM in series [14]; 1.4 ± 0.1 µM in series [15]. In addition, in [8], the “toxicity on the normal cell types tested” value is “did not trigger any loss of cell viability even at concentrations as high as 50 μM”.

In the case of `C#Cc1cc2c(cc1N1CCN(C(=O)[C@@H]3CCCN3C(=O)c3ccc4ccccc4n3)CC1)[C@H]1CC[C@@]3(C)[C@@H](CC[C@@]3(O)C#C)[C@@H]1CC2` [Compound 17a, {4-[(17β)-3,17-diethynyl-17-hydroxyestra-1,3,5(10)-trien-2-yl]piperazin-1-yl}[(2S)-1-(quinolin-2-ylcarbonyl)pyrrolidin-2-yl]methanone], the “cytotoxic activity in screening” value in [11] is recorded as “only slight differences in their respective levels of activity”.

With `C#C[C@@]1(O)CC[C@H]2[C@@H]3CCc4cc(C(C)O)c(N5CCN(C(=O)[C@@H]6CCCN6C(=O)c6ccc7ccccc7n6)CC5)cc4[C@H]3CC[C@@]21C` (stereo partly drawn) [Compound 18, {4-[(17β)-17-ethynyl-17-hydroxy-3-(1-hydroxyethyl)estra-1,35(10)-trien-2-yl]piperazin-1-yl}[(2S)-1-(quinolin-2-ylcarbonyl)pyrrolidin-2-yl]methanone], the “cytotoxic activity in screening” value in series [11] is on record as “only slight differences in their respective levels of activity”. In addition, the “metabolic stability (% of remaining compound)” value in [9] is “slightly lower values”.

Source of the values: US11174282B2, “Aminosteroid derivatives and process for producing same” (UNIVERSITÉ LAVAL, priority 2016, dated 2021).
